System: 186277-243-T-J2-PDC complex spheroids, viability
Assay: Anticancer human tumor 186277-243-T-J2-PDC patient-derived colon adenocarcinoma cell line growth inhibition [RAS]
Settings: for IC50: curve of first compound; for viability, T/C: stronger effect = lower value; active = viability on the fitted dose curve at most 10% of control; inactive = the rest
Summary of the method: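 Tumour cells grown as complex spheroids with HUVEC endothelial cells and mesenchymal stem cells, treated with RAS pathway inhibitor combinations. Each agent spans half-log steps from near clinical Cmax, or 10 microM where Cmax is unknown.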
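Note: spheroids exposed to compounds for 7 days before viability read.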

C=CC(=O)Nc1cc(Nc2nccc(-c3cn(C)c4ccccc34)n2)c(OC)cc1N(C)CCN(C)C + C#Cc1c(F)ccc2cc(O)cc(-c3ncc4c(N5CC6CCC(C5)N6)nc(OCC56CCCN5CC(F)C6)nc4c3F)c12
< 3.16 nM: IC50 (second compound 0.316 µM) | IC50 (second compound 1 µM) | IC50 (second compound 3.16 µM) | IC50 (second compound 10 µM)
inactive: viability, T/C (second compound 0.0316 µM, first compound 0.00316 µM) 67.1% | viability, T/C (second compound 0.0316 µM, first compound 0.01 µM) 76.4% | viability, T/C (second compound 0.0316 µM, first compound 0.0316 µM) 69.8% | viability, T/C (second compound 0.0316 µM, first compound 0.1 µM) 37.6% | viability, T/C (second compound 0.0316 µM, first compound 0.316 µM) 40.9% | viability, T/C (second compound 0.0316 µM, first compound 1 µM) 15% | viability, T/C (second compound 0.1 µM, first compound 0.00316 µM) 51.4% | viability, T/C (second compound 0.1 µM, first compound 0.01 µM) 61.5% | viability, T/C (second compound 0.1 µM, first compound 0.0316 µM) 52.3% | viability, T/C (second compound 0.1 µM, first compound 0.1 µM) 28.4% | viability, T/C (second compound 0.1 µM, first compound 0.316 µM) 16.5% | viability, T/C (second compound 0.1 µM, first compound 1 µM) 8.02% | viability, T/C (second compound 0.316 µM, first compound 0.00316 µM) 23.2% | viability, T/C (second compound 0.316 µM, first compound 0.01 µM) 31.3% | viability, T/C (second compound 0.316 µM, first compound 0.0316 µM) 22.7% | viability, T/C (second compound 0.316 µM, first compound 0.1 µM) 13.8% | viability, T/C (second compound 0.316 µM, first compound 0.316 µM) 10.4% | viability, T/C (second compound 1 µM, first compound 0.00316 µM) 15.8% | viability, T/C (second compound 1 µM, first compound 0.01 µM) 18% | viability, T/C (second compound 1 µM, first compound 0.0316 µM) 13.4% | viability, T/C (second compound 1 µM, first compound 0.1 µM) 11.4% | viability, T/C (second compound 3.16 µM, first compound 0.00316 µM) 10.4% | viability, T/C (second compound 3.16 µM, first compound 0.01 µM) 12.5%
active: viability, T/C (second compound 0.316 µM, first compound 1 µM) 6.25% | viability, T/C (second compound 1 µM, first compound 0.316 µM) 8.84% | viability, T/C (second compound 1 µM, first compound 1 µM) 6.02% | viability, T/C (second compound 3.16 µM, first compound 0.0316 µM) 11.1% | viability, T/C (second compound 3.16 µM, first compound 0.1 µM) 8.84% | viability, T/C (second compound 3.16 µM, first compound 0.316 µM) 7.79% | viability, T/C (second compound 3.16 µM, first compound 1 µM) 4.87% | viability, T/C (second compound 10 µM, first compound 0.00316 µM) 9.04% | viability, T/C (second compound 10 µM, first compound 0.01 µM) 8.39% | viability, T/C (second compound 10 µM, first compound 0.0316 µM) 8.64% | viability, T/C (second compound 10 µM, first compound 0.1 µM) 7.72% | viability, T/C (second compound 10 µM, first compound 0.316 µM) 6.69% | viability, T/C (second compound 10 µM, first compound 1 µM) 3.95%
34.5 nM: IC50 (second compound 0.1 µM)
97.4 nM: IC50 (second compound 0.0316 µM)

CC1(C)CCC(Nc2ncc(C(F)(F)F)c(-c3c[nH]c4c(P(C)(C)=O)c(C#N)ccc34)n2)CN1 (centres undefined) + CCn1c(-c2cccnc2C(C)OC)c2c3cc(ccc31)N1CCOC(CC(NC(=O)C(C(C)C)N(C)C(=O)C3(F)CCN(C(=O)C#CC(C)(C)N(C)C)CC3)C(=O)N3CCCC(N3)C(=O)OCC(C)(C)C2)C1
36.1 nM: IC50 (second compound 0.3 µM)
> 300 nM: IC50 (second compound 0.000949 µM) | IC50 (second compound 0.00949 µM) | IC50 (second compound 0.03 µM)
inactive: viability, T/C (second compound 0.000949 µM, first compound 0.000949 µM) 79.3% | viability, T/C (second compound 0.000949 µM, first compound 0.003 µM) 84.8% | viability, T/C (second compound 0.000949 µM, first compound 0.00949 µM) 112% | viability, T/C (second compound 0.000949 µM, first compound 0.03 µM) 81.5% | viability, T/C (second compound 0.000949 µM, first compound 0.0949 µM) 57.9% | viability, T/C (second compound 0.000949 µM, first compound 0.3 µM) 51.6% | viability, T/C (second compound 0.003 µM, first compound 0.000949 µM) 100% | viability, T/C (second compound 0.003 µM, first compound 0.003 µM) 90.2% | viability, T/C (second compound 0.003 µM, first compound 0.00949 µM) 103% | viability, T/C (second compound 0.003 µM, first compound 0.03 µM) 83.5% | viability, T/C (second compound 0.003 µM, first compound 0.0949 µM) 58.6% | viability, T/C (second compound 0.003 µM, first compound 0.3 µM) 47.4% | viability, T/C (second compound 0.00949 µM, first compound 0.000949 µM) 104% | viability, T/C (second compound 0.00949 µM, first compound 0.003 µM) 104% | viability, T/C (second compound 0.00949 µM, first compound 0.00949 µM) 103% | viability, T/C (second compound 0.00949 µM, first compound 0.03 µM) 85.6% | viability, T/C (second compound 0.00949 µM, first compound 0.0949 µM) 56.3% | viability, T/C (second compound 0.00949 µM, first compound 0.3 µM) 50.5% | viability, T/C (second compound 0.03 µM, first compound 0.000949 µM) 92% | viability, T/C (second compound 0.03 µM, first compound 0.003 µM) 98.6% | viability, T/C (second compound 0.03 µM, first compound 0.00949 µM) 108% | viability, T/C (second compound 0.03 µM, first compound 0.03 µM) 85.1% | viability, T/C (second compound 0.03 µM, first compound 0.0949 µM) 57.9% | viability, T/C (second compound 0.03 µM, first compound 0.3 µM) 49.7% | viability, T/C (second compound 0.0949 µM, first compound 0.000949 µM) 107% | viability, T/C (second compound 0.0949 µM, first compound 0.003 µM) 103% | viability, T/C (second compound 0.0949 µM, first compound 0.00949 µM) 91.9% | viability, T/C (second compound 0.0949 µM, first compound 0.03 µM) 71.1% | viability, T/C (second compound 0.0949 µM, first compound 0.0949 µM) 53.3% | viability, T/C (second compound 0.0949 µM, first compound 0.3 µM) 43.3% | viability, T/C (second compound 0.3 µM, first compound 0.000949 µM) 102% | viability, T/C (second compound 0.3 µM, first compound 0.003 µM) 96.3% | viability, T/C (second compound 0.3 µM, first compound 0.00949 µM) 87.8% | viability, T/C (second compound 0.3 µM, first compound 0.03 µM) 51.9% | viability, T/C (second compound 0.3 µM, first compound 0.0949 µM) 36.8% | viability, T/C (second compound 0.3 µM, first compound 0.3 µM) 30.8%
135 nM: IC50 (second compound 0.0949 µM)
236 nM: IC50 (second compound 0.003 µM)

Source: PubChem BioAssay AID2060908 (Molecular Pharmacology Branch, DTP, NCI, 2025)
